# Data as given in patent US7442393B2, “Herbal extracts of Salicornia species, process of preparation thereof, use thereof against tuberculosis” (priority 2003, dated 2008).
# System: M. tuberculosis H37Rv
# Experiment: In vivo screening of antitubercular activity in infected mice model of experimental tuberculosis
# Set-up: species or system Female swiss mice
# Conditions: 25 mg/kg body weight for 10 days after infection
compound,measurement,value
C[C@@H]1CN(c2c(F)c(N)c3c(=O)c(C(=O)O)cn(C4CC4)c3c2F)C[C@H](C)N1 [sparfloxicin],general health and body weight of infected mice,"healthy, gained weight"
same,mortality of infected mice,none of the mice died
